SMILES strings stand for the structures. “And” between values parts separate entries of the source, which are not always exact repeats. Equal entries are not always repeated. Structures can show the parent of a compound that is named as a salt.

The first assay deals with ROCK2 (Homo sapiens (Human), UniProt O75116). The experiment in a line: FRET-based Z'-Lyte kinase assay, ROCK2.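 Note: kinase phosphorylates a coumarin/fluorescein FRET peptide, then a protease cleaves unphosphorylated peptide, read as donor/acceptor emission ratio after 400 nm excitation.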 It is filed as biochemical. As to conditions: read-out: IC50 ± SD (μM) ROCK2.
Chain of ROCK2 (O75116 whole entry, species assumed): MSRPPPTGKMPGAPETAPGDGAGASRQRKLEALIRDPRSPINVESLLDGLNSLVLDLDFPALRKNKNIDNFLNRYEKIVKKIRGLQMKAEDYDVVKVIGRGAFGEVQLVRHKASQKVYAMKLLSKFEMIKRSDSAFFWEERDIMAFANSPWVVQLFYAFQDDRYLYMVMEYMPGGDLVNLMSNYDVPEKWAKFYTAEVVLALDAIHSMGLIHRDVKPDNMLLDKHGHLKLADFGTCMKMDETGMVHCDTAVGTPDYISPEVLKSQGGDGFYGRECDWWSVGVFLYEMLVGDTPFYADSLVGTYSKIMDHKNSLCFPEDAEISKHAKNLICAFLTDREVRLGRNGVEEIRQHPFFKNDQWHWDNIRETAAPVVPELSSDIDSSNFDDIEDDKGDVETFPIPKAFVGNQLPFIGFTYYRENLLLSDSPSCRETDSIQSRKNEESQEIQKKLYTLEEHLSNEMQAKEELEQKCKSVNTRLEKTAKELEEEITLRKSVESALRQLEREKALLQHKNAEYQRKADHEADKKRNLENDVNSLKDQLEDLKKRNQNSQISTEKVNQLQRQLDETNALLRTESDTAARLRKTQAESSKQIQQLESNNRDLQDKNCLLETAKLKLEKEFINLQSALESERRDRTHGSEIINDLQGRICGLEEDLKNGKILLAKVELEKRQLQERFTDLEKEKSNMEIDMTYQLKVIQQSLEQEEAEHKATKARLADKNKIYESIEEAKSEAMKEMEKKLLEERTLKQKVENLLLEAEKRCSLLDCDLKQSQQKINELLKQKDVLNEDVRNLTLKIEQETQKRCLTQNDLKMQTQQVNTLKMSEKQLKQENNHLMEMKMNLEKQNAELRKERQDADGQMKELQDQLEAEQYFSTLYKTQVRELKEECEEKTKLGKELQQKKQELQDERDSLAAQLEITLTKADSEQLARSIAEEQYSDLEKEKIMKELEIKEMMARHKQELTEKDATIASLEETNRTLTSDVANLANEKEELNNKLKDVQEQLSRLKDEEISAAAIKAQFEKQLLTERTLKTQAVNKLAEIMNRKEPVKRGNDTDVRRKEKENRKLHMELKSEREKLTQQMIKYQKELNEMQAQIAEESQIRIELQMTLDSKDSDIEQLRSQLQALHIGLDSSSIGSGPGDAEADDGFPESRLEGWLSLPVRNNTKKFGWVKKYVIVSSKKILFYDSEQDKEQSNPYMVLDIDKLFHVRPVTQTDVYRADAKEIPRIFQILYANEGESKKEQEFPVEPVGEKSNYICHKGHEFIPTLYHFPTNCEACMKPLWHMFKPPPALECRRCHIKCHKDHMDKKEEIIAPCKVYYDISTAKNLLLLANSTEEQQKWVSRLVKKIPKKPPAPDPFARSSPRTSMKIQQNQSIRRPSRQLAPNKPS
As a reminder, the IC50 is the concentration that gives 50% inhibition. On to `COc1ccc(CNC(=O)Nc2nc(-c3ccncc3)cs2)cc1OC` [Compound 1ck, 1-(3,4-Dimethoxybenzyl)-3-(4-(pyridin-4-yl)thiazol-2-yl)urea], for which the IC50 came out at 25 ± 1.01 µM.
Still for that read-out and setting: to `O=C(NCc1cccc2[nH]ccc12)Nc1nc(-c2ccncc2)cs1` [Compound 1bn, 1-((1H-indol-4-yl)methyl)-3-(4-(pyridin-4-yl)thiazol-2-yl)urea] belongs 31.1 ± 9.14 µM; to `O=C(Nc1nc(-c2ccncc2)cs1)NC(c1ccccc1)c1ccccc1` [Compound 1bi, 1-Benzhydryl-3-(4-(pyridin-4-yl)thiazol-2-yl)urea], 0.53 ± 0.1 µM.
Turning to `NC(=O)Nc1cccc(CNC(=O)Nc2nc(-c3ccncc3)cs2)c1` [Compound 1cj, hydrochloride], the IC50 was 0.18 ± 0.04 µM.
`C[C@@H](c1ccccc1)N(C)C(=O)Nc1nc(-c2ccncc2)cs1` [Compound 1co, (S)-1-Methyl-1-(1-phenylethyl)-3-(4-(pyridin-4-yl)thiazol-2-yl)urea]: the IC50 turned out to be 2.67 ± 0.89 µM.
Same read-out and setting: to `C[C@@H](NC(=O)Nc1nc(-c2ccncc2)cs1)c1cccc(F)c1` [Compound 1cc, (R)-1-(1-(3-fluorophenyl)ethyl)-3-(4-(pyridin-4-yl)thiazol-2-yl)urea] belongs 0.03 ± 0.01 µM; to `CN(Cc1ccccc1)C(=O)Nc1nc(-c2ccncc2)cs1` [Compound 1au, 1-Benzyl-1-methyl-3-(4-(pyridin-4-yl)thiazol-2-yl)urea], 0.07 ± 0.015 µM.
Still for that read-out and setting: the value for `C[C@H](NC(=O)Nc1nc(-c2ccncc2)cs1)c1ccccc1` [Compound 1ai, (S)-1-(1-Phenylethyl)-3-(4-(pyridin-4-yl)thiazol-2-yl)urea] was 1.6 µM and 1.9 µM; that for `O=C(NCc1ccccc1O)Nc1nc(-c2ccncc2)cs1` [Compound 1bp, 1-(2-Hydroxybenzyl)-3-(4-(pyridin-4-yl)thiazol-2-yl)urea] was 0.28 ± 0.05 µM; that for `C[C@H](c1ccccc1)N(C)C(=O)Nc1nc(-c2ccncc2)cs1` [Compound 1cn, (R)-1-Methyl-1-(1-phenylethyl)-3-(4-(pyridin-4-yl)thiazol-2-yl)urea] was 0.047 ± 0.018 µM.
Still for that read-out and setting: to `O=C(Nc1nc(-c2ccncc2)cs1)N[C@@H]1CCCc2ccccc21` [Compound 1cv, (R)-1-(4-(Pyridin-4-yl)thiazol-2-yl)-3-(1,2,3,4-tetrahydronaphthalen-1-yl)urea] belongs 3.82 ± 1.53 µM; to `COC[C@@H](NC(=O)Nc1nc(-c2ccncc2)cs1)c1ccccc1` [Compound 1bj, (S)-1-(2-Methoxy-1-phenylethyl)-3-(4-(pyridin-4-yl)thiazol-2-yl)urea], 0.03 ± 0.009 µM.
With `Nc1ccc(CNC(=O)Nc2nc(-c3ccncc3)cs2)cc1` [Compound 1bl, 1-(4-Aminobenzyl)-3-(4-(pyridin-4-yl)thiazol-2-yl)urea], the IC50 worked out at 17.4 ± 3.79 µM.
In the case of `O=C(Nc1nc(-c2ccncc2)cs1)N[C@@H]1CCc2ccccc21` [Compound 1ct, (R)-1-(2,3-Dihydro-1H-inden-1-yl)-3-(4-(pyridin-4-yl)thiazol-2-yl)urea], the IC50 amounted to 52.5 ± 1.75 µM.
Take `COc1cccc(CNC(=O)Nc2nc(-c3ccncc3)cs2)c1` [Compound 1af, 1-(3-Methoxybenzyl)-3-(4-(pyridin-4-yl)thiazol-2-yl)urea]: the IC50 is 0.01 µM and 0.011 µM.
The same measure, in the same setting: the value for `O=C(NCc1cccc(Cl)c1)Nc1nc(-c2ccncc2)cs1` [Compound 1an, 1-(3-Chlorobenzyl)-3-(4-(pyridin-4-yl)thiazol-2-yl)urea] was 0.06 ± 0.01 µM.

In the next assay the target is ROCK1 (Homo sapiens (Human), UniProt Q13464). The assay can be described thus: FRET-based Z'-Lyte kinase assay, ROCK1.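 Note: kinase phosphorylates a coumarin/fluorescein-labelled FRET peptide, then a protease cleaves unphosphorylated peptide, progress read as donor to acceptor emission ratio after 400 nm excitation.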 It is filed as biochemical. The conditions noted are these: comparator 1aa.
Chain of ROCK1 (Q13464 whole entry, species assumed): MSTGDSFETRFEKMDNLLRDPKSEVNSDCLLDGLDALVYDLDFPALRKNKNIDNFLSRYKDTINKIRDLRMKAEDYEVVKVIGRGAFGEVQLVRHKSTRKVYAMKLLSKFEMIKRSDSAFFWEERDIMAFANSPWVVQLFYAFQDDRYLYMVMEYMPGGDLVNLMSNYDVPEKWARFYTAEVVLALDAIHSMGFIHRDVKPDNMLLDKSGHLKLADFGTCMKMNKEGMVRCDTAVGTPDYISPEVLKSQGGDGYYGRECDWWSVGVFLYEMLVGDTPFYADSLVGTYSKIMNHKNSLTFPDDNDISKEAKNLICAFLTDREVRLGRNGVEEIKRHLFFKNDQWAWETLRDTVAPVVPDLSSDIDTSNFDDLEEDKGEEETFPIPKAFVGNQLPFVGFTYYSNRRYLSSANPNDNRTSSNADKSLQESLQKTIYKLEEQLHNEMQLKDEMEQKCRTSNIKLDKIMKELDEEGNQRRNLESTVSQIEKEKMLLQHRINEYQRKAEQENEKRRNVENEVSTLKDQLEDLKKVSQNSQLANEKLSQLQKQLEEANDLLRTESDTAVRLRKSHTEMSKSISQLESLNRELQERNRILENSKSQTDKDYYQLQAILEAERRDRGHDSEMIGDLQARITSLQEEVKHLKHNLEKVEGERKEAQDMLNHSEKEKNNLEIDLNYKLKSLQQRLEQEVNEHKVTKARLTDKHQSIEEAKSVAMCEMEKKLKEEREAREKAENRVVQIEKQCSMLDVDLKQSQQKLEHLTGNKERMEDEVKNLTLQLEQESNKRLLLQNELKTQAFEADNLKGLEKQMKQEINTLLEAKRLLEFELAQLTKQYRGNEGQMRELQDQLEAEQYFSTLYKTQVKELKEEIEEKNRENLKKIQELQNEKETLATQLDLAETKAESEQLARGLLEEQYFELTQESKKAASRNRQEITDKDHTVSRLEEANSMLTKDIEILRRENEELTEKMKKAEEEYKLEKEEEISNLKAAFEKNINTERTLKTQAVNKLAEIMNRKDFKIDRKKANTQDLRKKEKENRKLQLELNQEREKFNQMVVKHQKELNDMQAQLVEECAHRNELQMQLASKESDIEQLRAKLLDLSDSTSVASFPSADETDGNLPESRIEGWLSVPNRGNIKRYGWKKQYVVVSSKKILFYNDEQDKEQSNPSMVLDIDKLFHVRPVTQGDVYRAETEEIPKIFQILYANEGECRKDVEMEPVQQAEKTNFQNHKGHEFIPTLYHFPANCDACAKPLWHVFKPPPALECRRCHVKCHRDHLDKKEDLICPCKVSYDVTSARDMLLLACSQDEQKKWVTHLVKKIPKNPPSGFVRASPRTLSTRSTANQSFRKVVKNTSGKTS
Source text: A) In the primary reaction, the Rho kinases phosphorylates a single serine or threonine residue in a synthetic FRET-peptide. This FRET-peptide is doubly labeled with a fluorophore at each end—coumarin (the FRET donor) on one end and fluorescein (the FRET acceptor) on the other—and also contains a single phosphorylation site which either overlaps with or lies adjacent to the proteolytic site. B) In the secondary reaction, a site-specific protease recognizes and cleaves the non-phosphorylated FRET-peptide. Cleavage disrupts FRET between the donor and acceptor fluorophores on the FRET-peptide, whereas uncleaved, phosphorylated FRET-peptides maintain FRET. Kinases phosphorylated FRET-peptides cannot be cleaved by the protease. […] Cleavage disrupts FRET and causes a decrease in the fluorescein fluorescence signal and a strong increase in the coumarin fluorescence signal. Therefore the extension of the phosphprylation can be measured by FRET-signal remaining the protease reaction. The assay uses a ratiometric method, which calculates the ratio of donor emission to acceptor emission (the emission ratio) after excitation of the donor fluorophore at 400 nm, to quantitate reaction progress.
All compounds were systematically screened against ROCK1 and ROCK2.
For the molecule `O=C(Nc1nc(-c2ccncc2)cs1)NC(c1ccccc1)c1ccccc1` [Compound 1bi, 1-Benzhydryl-3-(4-(pyridin-4-yl)thiazol-2-yl)urea], the “fold decrease in ROCK1 activity/potency compared to parent compound 1aa” value is 12 fold.

Staying with this assay, now noted: comparator 1ah.
Consider `C[C@@H](NC(=O)Nc1nc(-c2ccncc2)cs1)c1cccc(F)c1` [Compound 1cc, (R)-1-(1-(3-fluorophenyl)ethyl)-3-(4-(pyridin-4-yl)thiazol-2-yl)urea], for which the “fold less potent than 1ah” value worked out at 3 fold.

Staying with this assay, now noted: comparator 1at.
Regarding `COC[C@@H](NC(=O)Nc1nc(-c2ccncc2)cs1)c1ccccc1` [Compound 1bj, (S)-1-(2-Methoxy-1-phenylethyl)-3-(4-(pyridin-4-yl)thiazol-2-yl)urea], the “fold loss of potency compared to 1at” value is recorded as 3.5 fold.

The same assay, now with this note: comparator 1bo (comparator for 1bn not stated).
With `O=C(NCc1cccc2[nH]ccc12)Nc1nc(-c2ccncc2)cs1` [Compound 1bn, 1-((1H-indol-4-yl)methyl)-3-(4-(pyridin-4-yl)thiazol-2-yl)urea], the “fold decrease in activity compared to 1bo” value stood at 470 fold.

Still in this assay, the particulars now being: methanesulfonate; read-out: IC50 ± SD (μM) ROCK1.
As to `O=C(NCc1cccc(O)c1)Nc1nc(-c2ccncc2)cs1` [Compound 1bo-Mes, 1-(3-hydroxybenzyl)-3-(4-(pyridin-4-yl)thiazol-2-yl)urea methanesulfonate], the IC50 came to 0.013 µM.

The assay is the same for the next values; noted with them: read-out: IC50 ± SD (μM) ROCK1.
Consider `COc1ccc(CNC(=O)Nc2nc(-c3ccncc3)cs2)cc1OC` [Compound 1ck, 1-(3,4-Dimethoxybenzyl)-3-(4-(pyridin-4-yl)thiazol-2-yl)urea], for which the IC50 is 45.1 ± 5.57 µM.
As for `O=C(NCc1cccc2[nH]ccc12)Nc1nc(-c2ccncc2)cs1` [Compound 1bn, 1-((1H-indol-4-yl)methyl)-3-(4-(pyridin-4-yl)thiazol-2-yl)urea], the IC50 was determined as 37.8 ± 7.81 µM.
Still for that read-out and setting: the value for `O=C(Nc1nc(-c2ccncc2)cs1)NC(c1ccccc1)c1ccccc1` [Compound 1bi, 1-Benzhydryl-3-(4-(pyridin-4-yl)thiazol-2-yl)urea] was 1.87 ± 0.54 µM; that for `NC(=O)Nc1cccc(CNC(=O)Nc2nc(-c3ccncc3)cs2)c1` [Compound 1cj, hydrochloride] was 1.15 ± 0.39 µM; that for `C[C@@H](c1ccccc1)N(C)C(=O)Nc1nc(-c2ccncc2)cs1` [Compound 1co, (S)-1-Methyl-1-(1-phenylethyl)-3-(4-(pyridin-4-yl)thiazol-2-yl)urea] was 6.44 ± 1.67 µM.
Still for that read-out and setting: the value for `C[C@@H](NC(=O)Nc1nc(-c2ccncc2)cs1)c1cccc(F)c1` [Compound 1cc, (R)-1-(1-(3-fluorophenyl)ethyl)-3-(4-(pyridin-4-yl)thiazol-2-yl)urea] was 0.11 ± 0.01 µM.
Take `CN(Cc1ccccc1)C(=O)Nc1nc(-c2ccncc2)cs1` [Compound 1au, 1-Benzyl-1-methyl-3-(4-(pyridin-4-yl)thiazol-2-yl)urea]: the IC50 is 0.11 ± 0.003 µM.
On the same count and under the same terms, the value for `C[C@H](NC(=O)Nc1nc(-c2ccncc2)cs1)c1ccccc1` [Compound 1ai, (S)-1-(1-Phenylethyl)-3-(4-(pyridin-4-yl)thiazol-2-yl)urea] was 3.56 µM and 3.29 µM.
Same read-out and setting: the value for `O=C(NCc1ccccc1O)Nc1nc(-c2ccncc2)cs1` [Compound 1bp, 1-(2-Hydroxybenzyl)-3-(4-(pyridin-4-yl)thiazol-2-yl)urea] was 0.62 ± 0.019 µM.
The same measure, in the same setting: the value for `C[C@H](c1ccccc1)N(C)C(=O)Nc1nc(-c2ccncc2)cs1` [Compound 1cn, (R)-1-Methyl-1-(1-phenylethyl)-3-(4-(pyridin-4-yl)thiazol-2-yl)urea] was 0.12 ± 0.04 µM.
Turning to `O=C(Nc1nc(-c2ccncc2)cs1)N[C@@H]1CCCc2ccccc21` [Compound 1cv, (R)-1-(4-(Pyridin-4-yl)thiazol-2-yl)-3-(1,2,3,4-tetrahydronaphthalen-1-yl)urea], the IC50 was 6.99 ± 1.61 µM.
`COC[C@@H](NC(=O)Nc1nc(-c2ccncc2)cs1)c1ccccc1` [Compound 1bj, (S)-1-(2-Methoxy-1-phenylethyl)-3-(4-(pyridin-4-yl)thiazol-2-yl)urea]: the IC50 worked out at 0.07 ± 0.005 µM.
`Nc1ccc(CNC(=O)Nc2nc(-c3ccncc3)cs2)cc1` [Compound 1bl, 1-(4-Aminobenzyl)-3-(4-(pyridin-4-yl)thiazol-2-yl)urea]: the IC50 was 45.9 ± 5.15 µM.
Turning to `O=C(Nc1nc(-c2ccncc2)cs1)N[C@@H]1CCc2ccccc21` [Compound 1ct, (R)-1-(2,3-Dihydro-1H-inden-1-yl)-3-(4-(pyridin-4-yl)thiazol-2-yl)urea], the IC50 amounted to 28.2 ± 1.84 µM.
Same read-out and setting: the value for `COc1cccc(CNC(=O)Nc2nc(-c3ccncc3)cs2)c1` [Compound 1af, 1-(3-Methoxybenzyl)-3-(4-(pyridin-4-yl)thiazol-2-yl)urea] was 0.06 µM and 0.027 µM.
For `O=C(NCc1cccc(Cl)c1)Nc1nc(-c2ccncc2)cs1` [Compound 1an, 1-(3-Chlorobenzyl)-3-(4-(pyridin-4-yl)thiazol-2-yl)urea], the IC50 was 0.1 µM and 0.14 µM.

Still in this assay, the particulars now being: read-out: ROCK1 % inhibition @ 50 μM; 50 μM compound.
For orientation: inhibition means the drop in the measured response relative to a control, in per cent. Take `COc1ccc(CNC(=O)Nc2nc(-c3ccncc3)cs2)cc1` [Compound 1am, 1-(4-Methoxybenzyl)-3-(4-(pyridin-4-yl)thiazol-2-yl)urea]: the inhibition at 50 µM amounted to 9.12%.

The same assay, now with this note: read-out: ROCK1 IC50.
Regarding `O=C(NCc1cccc(O)c1)Nc1nc(-c2ccncc2)cs1` [Compound 1bo-Mes, 1-(3-hydroxybenzyl)-3-(4-(pyridin-4-yl)thiazol-2-yl)urea methanesulfonate], the IC50 was 0.012 µM.

For another assay, the system named is phosphorylation of MYPT1, a substrate for ROCK kinase, in H1299 cells. The experiment in a line: phosphorylation levels of MYPT1 in intact H1299 cells (western blot). The assay is classed as cell-based, human. As to conditions: H1299 cells, 10 μM. A general note: Immunoblotting shows a protein as a band on a membrane.
For the molecule `COc1ccc(CNC(=O)Nc2nc(-c3ccncc3)cs2)cc1` [Compound 1am, 1-(4-Methoxybenzyl)-3-(4-(pyridin-4-yl)thiazol-2-yl)urea], the “effect on phosphorylation of MYPT1” value is recorded as “did not affect”.

The same assay, now with this note: NCI-H1299; H1299 human lung cancer cells; read-out: IC50 for inhibition of phosphorylation of MYPT1.
With `O=C(NCc1cccc(O)c1)Nc1nc(-c2ccncc2)cs1` [Compound 1bo-Mes, 1-(3-hydroxybenzyl)-3-(4-(pyridin-4-yl)thiazol-2-yl)urea methanesulfonate], the IC50 turned out to be 500 nM.

(Values after patent publication US9221808B2, “Pyridylthiazole-based ureas as inhibitors of Rho associated protein kinase (ROCK) and methods of use” (H. Lee Moffitt Cancer Center and Research Institute, Inc., priority 2010, dated 2015).)
